In US20050208037A1, “Thioredoxin increases redox-cycling of anticancer agents thereby sensitizes cancer cells to apoptosis” (Board of Regents, The University of Texas System, priority 2003, published 2005):
Where a name gives a salt, the structure may show the parent alone.

Legend:
[1] = biological target: T1, E. coli thioredoxin reductase-thioredoxin system (Escherichia coli, UniProt P0A9P4); experiment: Superoxide detection by cytochrome c reduction assay with thioredoxin system; format: biochemical
T1 construct: purchased American Diagnostica Inc (thioredoxin reductase); Promega Inc (thioredoxin)
Method: Superoxide detection by cytochrome c reduction assay. Superoxide (O2—) generated in the process of redox-cycling was detected by SOD inhibitable rate of ferricytochrome c reduction (Das et al., 2000). The reaction mixture contained 0.05 M potassium phosphate buffer (pH 7.78), 1 mM EDTA, 10 μM cytochrome c and 200 μM NADPH. […] The rate of […] of cytochrome c was measured at 550 nm for 0-15 minutes using Shimadzu UV-1601PC in kinetic mode. Reaction blank contained potassium phosphate buffer, cytochrome c and NADPH with or without SOD, and controls included 0.35-0.7 μg TR and /or Trx in buffer. All reactions were performed in triplicate.

A549 cells [2] = experiment: ROS detection by DCF-DA fluorescence; format: cell-based, human
Method: In situ detection of superoxide by fluorescent probe DiCarboxyFluorescein-DiAcetate (DCF-DA). […] Cells were pre-incubated with 20 μM DCF-DA (Sigma, St. Louis, Mo.) in 20 mM Hepes in Phosphate Buffered Saline (PBS) containing bovine serum albumin (BSA, 5 mg/ml) at 37° C. for 30 min followed by washing with PBS buffer, and the drug was added and observed for 10-15 min in a Nikon laser confocal microscope using laser beam wavelength 488 nm analyzed by Ultraview software (Perkin-Elmer).

p53 in A549 cells = experiment: EMSA of p53 DNA binding; format: cell-based, human; conditions: E. coli Trx 32 μM 16 h followed by daunomycin 1 μM 4 h
Method: Nuclear Extract preparation. Nuclear extract was prepared as described previously (Das, 2001). […] The extracts were then centrifuged at 14,000 rpm for 25 min and the supernatant was saved as nuclear extract in −70° C. for further experiments. Protein was quantified using Bradford protein assay (Biorad).
Electrophoretic Mobility shift assay (EMSA). For the EMSA the p53 consensus oligonucleotide was obtained from Genosys 5′-[…]-3′ (SEQ ID NO:9) and end labeled using T4 Poly nucleotide kinase (New England Biolabs, Beverly, Mass.) and [γ-^32P] ATP (Perkin Elmer, Boston, Mass.) in 10× kinase buffer supplied with the enzyme. […] The nuclear protein was separated by electrophoresis using 4% native polyacrylamide gel and 0.25× of TBE (Tris-Borate-EDTA) as running buffer. The gels were dried and exposed to Kodax Biomax X-ray film overnight.

A549 cells [3] = conditions: E. coli thioredoxin 32 μM 16 hr followed by daunomycin 1 μM 4 hr
Description: TUNEL assay. Apoptotic cells were detected using In Situ Cell Death detection, POD kit (Roche Molecular Biochemicals, Indianapolis, Ind.). Apoptotic DNA strand breaks were identified by labeling 3′-OH termini with fluorescein-dUTP using Terminal deoxy Transferase as per manufacturer's protocol. For this assay cells were allowed to adhere overnight in chambered glass slides (Nunc) to a final density of 25,000 cells per well. Followed by treatment with the appropriate concentration of drugs the media was removed and washed twice with PBS containing 1% BSA and the cells fixed in 4% paraformaldehyde for 30 min and washed with PBS containing 1% BSA. The cells were then permeabilized with 0.1% Triton X-100 in 0.1% sodium citrate for 2 min on ice and washed twice with PBS containing 1% BSA. The labeling reaction was performed using FITC labeled dUTP along with other nucleotides by terminal deoxynucleotidyl transferase for 60 mins in dark at 37° C. in humidified chamber. The cells were washed with PBS-1% BSA, mounted onto a slide, and the incorporated fluorescein-dUTP was analyzed using Nikon laser confocal microscope.

[4] = biological target: T2, human thioredoxin reductase (Homo sapiens, UniProt Q16881); conditions: cited from earlier work
T2 sequence (Q16881 151-649 limits assumed): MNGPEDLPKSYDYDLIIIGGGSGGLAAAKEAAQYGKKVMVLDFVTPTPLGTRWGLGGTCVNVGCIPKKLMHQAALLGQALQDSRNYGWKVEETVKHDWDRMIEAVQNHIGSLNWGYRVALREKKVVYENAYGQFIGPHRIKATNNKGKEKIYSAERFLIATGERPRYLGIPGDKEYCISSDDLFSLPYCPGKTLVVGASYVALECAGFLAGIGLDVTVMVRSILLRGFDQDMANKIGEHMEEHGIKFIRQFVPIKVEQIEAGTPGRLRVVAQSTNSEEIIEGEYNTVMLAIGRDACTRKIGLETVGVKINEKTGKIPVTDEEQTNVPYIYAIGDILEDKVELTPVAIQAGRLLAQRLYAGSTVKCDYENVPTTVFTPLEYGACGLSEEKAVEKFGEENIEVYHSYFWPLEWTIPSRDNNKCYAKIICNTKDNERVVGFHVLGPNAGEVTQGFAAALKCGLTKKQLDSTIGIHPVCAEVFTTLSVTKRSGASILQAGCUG

[5] = test system: Trx9 cells (MCF-7 clones expressing thioredoxin); experiment: Superoxide production in cell lysate by SOD-inhibitable reduction of ferricytochrome c; format: biochemical, human; conditions: Trx9 compared to vector-transfected cells; 10 μM drug
Method: Determination of superoxide production by reduction of ferricytochrome c. Superoxide production was measured as superoxide dismutase (SOD) inhibitable reduction of ferricytochrome c (Azzi et al. 1975). Cells were sonicated in potassium phosphate buffer (0.05M, pH 7.8 plus 1 mM EDTA), centrifuged and the supernatant was used for the assay. To determine the superoxide generation in the cell lysate, the supernatant was incubated with 10 μM drug and 10 μM cytochrome c, with or without 1U SOD to determine SOD inhibitable rate. The specificity of thioredoxin mediated superoxide generation in the supernatant was detected by pre-incubation of cell lysates with anti-human thioredoxin antibody (American Diagnostica, Greenwich, Conn.) for 15 min. All reactions were performed in triplicate. The reduction of ferricytochrome c was measured both in kinetic and end point mode with path check on for 1 hr duration at a wavelength of 550 nm using a Spectramax 190 plate reader (Molecular Devices). Total protein was quantified using Bradford protein assay (Biorad) and the superoxide generation was determined per milligram of protein in the extracts.

[6] = test system: Trx9 cells (MCF-7 clones expressing thioredoxin); experiment: In situ detection of ROS by DCF-DA fluorescence; format: cell-based, human; conditions: Trx9 compared to vector cells
Method: In situ detection of superoxide by fluorescent probe DiCarboxyFluorescein-DiAcetate (DCF-DA). Cells were grown in chambered glass slides (Nunc) to a final density of 25,000 cells per well.

E. coli thioredoxin = biological target: T3, E. coli thioredoxin (Escherichia coli, UniProt P0AA25); experiment: Thioredoxin redox state by carboxymethylation and western analysis; format: biochemical; conditions: TR and doxorubicin
T3 construct: purchased Promega Inc (thioredoxin); American Diagnostica Inc (thioredoxin reductase)
Method: Carboxymethylation of thioredoxin. In order to analyze the possible role of thioredoxin in the redox-cycling of anthracyclines the redox status of thioredoxin was determined by carboxymethylation at the end of assay. Carboxymethylation was done as described previously (Das et al., 1997). Equal volume of carboxymethylation buffer (0.1 M Tris; pH 8.8, 12 mg/ml iodoacetic acid, 3 mM EDTA, 7 M guanidine hydrochloride, and 0.5% Triton X-100, equilibrated with nitrogen for 1 h) was added and incubated at 37° C. in the dark for 45 min. After incubation the excess reagent was removed using Sephadex G-25 spin column, and the elute was used for western blot detection of thioredoxin.
Western analysis of thioredoxin redox state. […] The protein was transferred to PVDF membrane using a miniprotein transblot apparatus (Bio-Rad). The PVDF membrane was washed and incubated with mouse anti-E. coli Trx IgG (MBL, Nagoya, Japan). After washing, the blot was incubated with anti Mouse IgG- horseradish peroxidase conjugate for 1 h at room temperature. Binding of secondary antibody was detected using an enhanced chemiluminescence (ECL Plus) detection system (Amersham Pharmacia Biotech, Piscataway, N.J.). Western blot was quantified using densitometric analysis software (NIH Image 1.61).

[7] = biological target: T4, cytochrome P450 reductase (Oryctolagus cuniculus, UniProt P00389); experiment: Cytochrome P450 reductase mediated SOD-inhibitable superoxide generation; format: biochemical, rabbit; conditions: 10 μM doxorubicin, Trx-SH alone as electron donor, absence of NADPH
T4 construct: purchased Sigma Chemicals (St. Louis, Mo.); host or cells: rabbit liver
T4 sequence (P00389 1-679): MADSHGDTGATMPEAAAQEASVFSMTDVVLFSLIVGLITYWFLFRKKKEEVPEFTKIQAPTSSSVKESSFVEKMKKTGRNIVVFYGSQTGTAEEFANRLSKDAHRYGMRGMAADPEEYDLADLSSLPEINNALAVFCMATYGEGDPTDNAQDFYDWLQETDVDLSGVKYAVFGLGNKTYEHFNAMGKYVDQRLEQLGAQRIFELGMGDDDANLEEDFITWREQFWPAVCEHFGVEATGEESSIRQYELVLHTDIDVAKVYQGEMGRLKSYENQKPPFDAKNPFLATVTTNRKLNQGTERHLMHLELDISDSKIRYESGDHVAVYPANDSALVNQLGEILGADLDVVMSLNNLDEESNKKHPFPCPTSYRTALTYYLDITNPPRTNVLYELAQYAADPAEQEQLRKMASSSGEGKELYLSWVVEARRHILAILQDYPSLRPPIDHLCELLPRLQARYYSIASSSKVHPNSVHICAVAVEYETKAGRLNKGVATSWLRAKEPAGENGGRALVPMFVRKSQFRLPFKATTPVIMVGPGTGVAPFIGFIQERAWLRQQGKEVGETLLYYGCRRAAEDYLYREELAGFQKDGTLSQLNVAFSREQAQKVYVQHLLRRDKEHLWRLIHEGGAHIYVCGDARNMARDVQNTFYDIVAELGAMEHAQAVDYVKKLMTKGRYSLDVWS
Method: Superoxide detection by cytochrome c reduction assay. Superoxide (O2—) generated in the process of redox-cycling was detected by SOD inhibitable rate of ferricytochrome c reduction (Das et al., 2000). […] Reaction blank contained potassium phosphate buffer, cytochrome c and NADPH with or without SOD, and controls included 0.35-0.7 μg TR and /or Trx in buffer. All reactions were performed in triplicate.

[8] = cited from earlier work

T1 sequence (P0A9P4 2-321): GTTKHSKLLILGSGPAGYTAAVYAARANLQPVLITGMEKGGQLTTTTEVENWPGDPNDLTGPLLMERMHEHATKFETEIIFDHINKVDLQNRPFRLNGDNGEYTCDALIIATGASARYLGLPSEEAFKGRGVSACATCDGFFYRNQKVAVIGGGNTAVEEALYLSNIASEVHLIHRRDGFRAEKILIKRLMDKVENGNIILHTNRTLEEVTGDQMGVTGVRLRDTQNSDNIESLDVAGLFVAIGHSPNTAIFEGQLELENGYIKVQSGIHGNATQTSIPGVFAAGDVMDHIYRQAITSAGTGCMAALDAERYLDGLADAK
T3 sequence (P0AA25 2-109): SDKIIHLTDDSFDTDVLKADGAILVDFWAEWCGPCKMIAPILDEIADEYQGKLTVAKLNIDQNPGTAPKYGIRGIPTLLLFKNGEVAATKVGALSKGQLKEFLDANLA

What does the source list for “E. coli thioredoxin: E. coli thioredoxin obtained from Promega; sequence of SEQ ID NO:4”?
levels of O2— generated ([1]; addition of 3.2 μM Trx to thioredoxin reductase with daunomycin or doxorubicin): further enhanced the levels of O2—; rate of O2— generation with doxorubicin ([1]; thioredoxin from 1.6 to 6.4 μM, 0.35 μg thioredoxin reductase, 10 μM doxorubicin): proportional increase in the rate of O2— generation; ROS generation (DCF-DA) (A549 cells [2]; E. coli thioredoxin only (32 μM, 16 hr)): No ROS were detected; ROS generation (DCF-DA) (A549 cells [2]; pretreated with E. coli thioredoxin (32 μM, 16 hr) followed by 1 μM daunomycin): significantly higher level of ROS generation; p53 DNA binding (p53 in A549 cells): increased p53 DNA binding; TUNEL positive nuclei (A549 cells [3]): increase in TUNEL positive nuclei; Km as a substrate for human thioredoxin reductase [4]: 35 µM

With `COc1cccc2c1C(=O)c1c(O)c3c(c(O)c1C2=O)C[C@@](O)(C(=O)CO)C[C@@H]3O[C@H]1C[C@H](N)[C@H](O)[C@H](C)O1` [doxorubicin, 5,12-Naphthacenedione, (8 s-cis)-10-[(3-amino-2,3,6-trideoxy-a-L-lyxo-hexopyranosyl)oxy]-7,8,9,10-tetrahydro-6,8,11-trihydroxy-8-(hydroxyacetyl)-1-methoxy-hydrochloride] as the compound, how does the “O2— production” value [5] read?
The value was “significantly higher level of O2—”.

And the “DCF-DA fluorescence (oxidation of DCF-DA)” value [6]?
Its value is “enhanced fluorescence”.

What about the “levels of O2— generated” value ([1]; drug 10 μM with thioredoxin reductase alone) of the same compound?
The value was “significantly higher levels of O2—”.

What about the “SOD inhibitable rate of ferricytochrome c reduction” value ([1]; drug alone, 10 μM) of the same compound?
Its value is “did not show significant level”.

And the “rate of superoxide generation as compared to daunomycin” value ([1]; thioredoxin reductase alone or thioredoxin reductase-thioredoxin system, 10 μM drug)?
Its value is “two fold increase”.

And the “level of Trx-S2 (oxidized thioredoxin)” value (E. coli thioredoxin; 28.7% without doxorubicin)?
The value was 53%.

What about the “level of reduced thioredoxin” value (E. coli thioredoxin; Trx, 71.3% in thioredoxin-thioredoxin reductase system only) of the same compound?
The value was 47%.

And the “SOD inhibitable O2— generation” value [7]?
Its value is “generated O2—”.

And the “excreted into the urine” value ([8]; in vivo)?
The value was “a few percent”.

And the elimination half-life ([8]; intravenous)?
Its elimination half-life is “about 30 hr”.

What about the absorption ([8]; oral) of the same compound?
The absorption was “poorly absorbed”.
